Laboratory results: publication PMC10865363, “Structural, Biochemical, and Computational Characterization of Sulfamides as Bimetallic Peptidase Inhibitors” (Journal of Chemical Information and Modeling, 2024)
Counter-ions that a name gives are not always drawn.

What was measured:
[1] = target: T1, Prostate-specific membrane antigen (PSMA) (Homo sapiens, UniProt Q04609); assay: X-ray crystal structure ([…] Å); IC50 from radioenzymatic 3H-NAAG assay with purified enzyme; format: biochemical
T1 construct: gene FOLH1; extracellular part of human PSMA; amino acids 44–750

[2] = target: T1, Prostate-specific membrane antigen (PSMA); assay: radioenzymatic assay with 3H-NAAG, purified recombinant PSMA; format: biochemical

T1 sequence (Q04609 44-750): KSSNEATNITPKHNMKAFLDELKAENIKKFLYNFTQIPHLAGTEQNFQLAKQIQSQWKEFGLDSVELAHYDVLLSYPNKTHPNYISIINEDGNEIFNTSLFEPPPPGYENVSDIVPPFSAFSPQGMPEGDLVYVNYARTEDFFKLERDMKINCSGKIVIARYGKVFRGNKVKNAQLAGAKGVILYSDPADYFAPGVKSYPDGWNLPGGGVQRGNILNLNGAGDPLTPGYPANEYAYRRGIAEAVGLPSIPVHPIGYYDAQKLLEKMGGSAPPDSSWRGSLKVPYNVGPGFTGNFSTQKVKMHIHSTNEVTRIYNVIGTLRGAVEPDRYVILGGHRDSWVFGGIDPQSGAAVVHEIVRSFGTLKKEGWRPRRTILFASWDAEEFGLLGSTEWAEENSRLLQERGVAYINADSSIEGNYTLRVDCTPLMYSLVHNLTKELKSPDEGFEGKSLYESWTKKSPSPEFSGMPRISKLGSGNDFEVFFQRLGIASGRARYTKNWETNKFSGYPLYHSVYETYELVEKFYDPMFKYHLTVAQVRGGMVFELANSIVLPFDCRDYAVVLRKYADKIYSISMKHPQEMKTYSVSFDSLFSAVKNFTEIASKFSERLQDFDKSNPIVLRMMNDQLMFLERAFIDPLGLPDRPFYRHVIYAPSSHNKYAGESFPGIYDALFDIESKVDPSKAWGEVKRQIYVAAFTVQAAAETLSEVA

Row | Structure (SMILES) | IC50 [1] [µM] | IC50 [2] [µM]
1 | NS(=O)(=O)N[C@@H](CCC(=O)O)C(=O)O [compound 9, monosubstituted glutamyl sulfamide 9] | 1.2 | –
2 | O=C(O)CC[C@H](NS(=O)(=O)N[C@@H](CC(=O)O)C(=O)O)C(=O)O [compound 3, (S)-2-((N-((S)-1,2-Dicarboxyethyl)sulfamoyl)amino)pentanedioic Acid Tetrasodium Salt] | – | 103
3 | O=C(O)CC[C@H](NS(=O)(=O)N[C@@H](CCC(=O)O)C(=O)O)C(=O)O [compound 4, (2S,2′S)-2,2′-(Sulfonylbis(azanediyl))dipentanedioic Acid] | – | 165
